Patent US10633704B2, “Diagnostic and immunotherapy compositions and methods for disease states mediated by inhibitor-resistant CD8 T-cells” (priority 2010, dated 2020)
“Also recorded” adds a separate entry of the source.

Tested on: CD8bm12-1 T cell clone
Experiment: Proliferation assay (3H-thymidine) of CsA/RAPA-resistant CD8 T cell clone CD8bm12-1 activated by immobilized anti-CD3 without or with anti-CD28
Assay type: cell-based, mouse (C57BL/6)
Procedure: Proliferation assays were done with anti-CD3 (145-2Cl 1) without or with anti-CD28 (37.51). Antibodies in 50 μl of PBS/well were used to coat 96-well tissue culture plates (Costar) overnight at 4° C. Antibodies were shaken off and wells washed 1× with 150 μl of RPMI complete media prior to their use in proliferation assays. Experimental wells were pulsed with 0.5 μCi/well ^3H-thymidine (ICN, Costa Mesa, Calif.) for 10-12 hours at 24-36 or 36-48 hours of the culture cycle. Cyclosporine A (Sigma Chemical Co.; St. Louis, Mo.) dissolved in 200 proof ethanol and CH-223191 (Calbiochem; San Diego, Calif.) dissolved in dimethylsulfoxide were used at indicated concentrations. The no treatment controls in each experiment included vehicle controls for both ethanol and dimethylsulfoxide.
FIGS. 6A and 6B show proliferation plots of CD8bm1 (▪) and CD8bm12-1 (●), both activated by immobilized anti-CD3 and exposed to a full range of cyclosporine A (the results shown in FIGS. 6A and 6B result from two separate experiments conducted).

SMILES: Cc1ccccc1N=Nc1ccc(NC(=O)c2ccnn2C)c(C)c1 [CH-223191]
- effect on proliferation of CD8bm12-1 (media with 1 ug/ml CsA, anti-CD3, CH-223191 3 uM): no effect
- effect on proliferation of CD8bm12-1 (media with 1 ug/ml CsA, anti-CD3, CH-223191 10 uM): moderate inhibitory effect
- effect on proliferation of CD8bm12-1 (media with 1 ug/ml CsA, anti-CD3, CH-223191 30 uM): dramatic inhibitory effect; also recorded: completely blocked
- effect on proliferation of CD8bm12-1 (media with 1 ug/ml CsA, anti-CD3 and anti-CD28, CH-223191 30 uM): completely blocked proliferation
- effect on proliferation of CD8bm12-1 (media without CsA, anti-CD3, CH-223191 at 30 uM, 10 uM or 3 uM): no discernable negative effect
- effect on proliferation of CD8bm12-1 (media without CsA, anti-CD3 and anti-CD28, CH-223191): little discernable effect
